Source: US9339668B2, “Extract of aerial parts of oats harvested before ear emergence” (priority 2008, dated 2016)

Tested on: Prostaglandin PG6KF1α production in stimulated human keratinocyte
Assay: Production of prostaglandin PG6KF1α induced at the keratinocyte by calcium ionophore A23187
Type: cell-based
Settings: 10 μg/ml
Description: Principle: The keratinocyte, the most represented cell at the epidermis, plays a significant role in initiating and modulating inflammatory reactions of the skin. With the model it is possible to determine in vitro the capabilities of various molecules of modulating the production of mediators stemming from the metabolism of arachidonic acid. Prostaglandin PG6KF1α is a stable metabolite of prostacyclin PGI2, a major metabolite produced by the stimulated human keratinocyte. An acetone extract of aerial parts of oats harvested before ear emergence and its fractions were evaluated on the production of this prostaglandin induced at the keratinocyte by the calcium ionophore A23187 (stimulating the cascade of arachidonic acid).

O=c1cc(-c2ccc(O)c(O)c2)oc2cc(O)c([C@@H]3O[C@H](CO)[C@@H](O)[C@H](O)[C@H]3OC3OC[C@@H](O)[C@@H](O)[C@@H]3O)c(O)c12 (stereo partly shown) [isoorientin-2″-O-arabinosyl]
inhibition of PG6KF1α production: 55%
